# Test results: the supplement of paper PMC10307832
# Tests used:
# Assay in all cases: relative viability (nuclei count vs DMSO), 5 days (fraction); higher = more cells survive
# [1] = compound: CCN(CC)CCNC(=O)c1c(C)[nH]c(/C=C2\C(=O)Nc3ccc(F)cc32)c1C [Sunitinib] + N=C(N)NC(=N)NCCc1ccccc1 [Phenformin] (partner 250 µM)
# Outline: (§1)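 Lung cancer cell lines were seeded in 1536-well plates and dosed by pin tool the next day, with either a single drug or a fixed anchor-drug dose combined with five library-drug doses (not always all listed) spaced in √10 steps. Five days later, one step fixed the cells and stained their nuclei (final 0.05% Triton X-100, 1% formaldehyde, 1 ug/ml Hoechst), and nuclei were counted on 4× images. Relative viability is the nuclei count in treated wells divided by the count in vehicle wells, and each value is the median of duplicate plates.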
# [2] = compound: CCN(CC)CCNC(=O)c1c(C)[nH]c(/C=C2\C(=O)Nc3ccc(F)cc32)c1C [Sunitinib] + Nc1nc2[nH]cc(CCc3ccc(C(=O)N[C@@H](CCC(=O)O)C(=O)O)cc3)c2c(=O)[nH]1 [Pemetrexed] (partner 0.2 µM)
# Outline: as §1
# [3] = compound: CCN(CC)CCNC(=O)c1c(C)[nH]c(/C=C2\C(=O)Nc3ccc(F)cc32)c1C [Sunitinib] + CC1(C)CCC(c2ccc(Cl)cc2)=C(CN2CCN(c3ccc(C(=O)NS(=O)(=O)c4ccc(N[C@H](CCN5CCOCC5)CSc5ccccc5)c(S(=O)(=O)C(F)(F)F)c4)cc3)CC2)C1 [Navitoclax] (partner 0.5 µM)
# Outline: as §1
# [4] = compound: CCN(CC)CCNC(=O)c1c(C)[nH]c(/C=C2\C(=O)Nc3ccc(F)cc32)c1C [Sunitinib] + CC(=O)Nc1cccc(-n2c(=O)n(C3CC3)c(=O)c3c(Nc4ccc(I)cc4F)n(C)c(=O)c(C)c32)c1 [Trametinib] (partner 0.02 µM)
# Outline: as §1
cell line,measurement,setting,value
A-427,relative viability,[1]; first compound 0.02 µM,0.263
same,relative viability,[1]; first compound 0.06325 µM,0.383
same,relative viability,[1]; first compound 0.2 µM,0.315
same,relative viability,[1]; first compound 0.6325 µM,0.301
same,relative viability,[1]; first compound 2 µM,0.279
same,relative viability,[2]; first compound 0.02 µM,0.993
same,relative viability,[2]; first compound 0.06325 µM,1
same,relative viability,[2]; first compound 0.2 µM,0.95
same,relative viability,[2]; first compound 0.6325 µM,0.997
same,relative viability,[2]; first compound 2 µM,1.01
same,relative viability,[3]; first compound 0.02 µM,0.954
same,relative viability,[3]; first compound 0.06325 µM,0.987
same,relative viability,[3]; first compound 0.2 µM,0.999
same,relative viability,[3]; first compound 0.6325 µM,1
same,relative viability,[3]; first compound 2 µM,1.12
same,relative viability,[4]; first compound 0.02 µM,0.759
same,relative viability,[4]; first compound 0.06325 µM,0.758
same,relative viability,[4]; first compound 0.2 µM,0.893
same,relative viability,[4]; first compound 0.6325 µM,0.821
same,relative viability,[4]; first compound 2 µM,0.728
NCI-H2085,relative viability,[1]; first compound 0.02 µM,0.686
same,relative viability,[1]; first compound 0.06325 µM,0.916
same,relative viability,[1]; first compound 0.2 µM,0.788
same,relative viability,[1]; first compound 0.6325 µM,0.877
same,relative viability,[1]; first compound 2 µM,0.754
same,relative viability,[2]; first compound 0.02 µM,0.909
same,relative viability,[2]; first compound 0.2 µM,1.04
same,relative viability,[2]; first compound 0.6325 µM,0.952
same,relative viability,[2]; first compound 2 µM,0.87
same,relative viability,[3]; first compound 0.06325 µM,1.19
same,relative viability,[3]; first compound 0.2 µM,1.23
same,relative viability,[3]; first compound 0.6325 µM,1.18
same,relative viability,[3]; first compound 2 µM,1.28
same,relative viability,[4]; first compound 0.02 µM,0.5
same,relative viability,[4]; first compound 0.06325 µM,0.515
same,relative viability,[4]; first compound 0.2 µM,0.515
same,relative viability,[4]; first compound 0.6325 µM,0.634
same,relative viability,[4]; first compound 2 µM,0.71
SK-MES-1,relative viability,[1]; first compound 0.02 µM,0.619
same,relative viability,[1]; first compound 0.06325 µM,0.665
same,relative viability,[1]; first compound 0.2 µM,0.689
same,relative viability,[1]; first compound 0.6325 µM,0.655
same,relative viability,[1]; first compound 2 µM,0.52
same,relative viability,[2]; first compound 0.02 µM,0.851
same,relative viability,[2]; first compound 0.06325 µM,0.946
same,relative viability,[2]; first compound 0.2 µM,1.09
same,relative viability,[2]; first compound 0.6325 µM,1.13
same,relative viability,[2]; first compound 2 µM,0.903
same,relative viability,[3]; first compound 0.02 µM,1.18
same,relative viability,[3]; first compound 0.06325 µM,1.34
same,relative viability,[3]; first compound 0.2 µM,1.43
same,relative viability,[3]; first compound 0.6325 µM,1.3
same,relative viability,[3]; first compound 2 µM,1.3
same,relative viability,[4]; first compound 0.02 µM,0.526
same,relative viability,[4]; first compound 0.06325 µM,0.528
same,relative viability,[4]; first compound 0.2 µM,0.555
same,relative viability,[4]; first compound 0.6325 µM,0.575
same,relative viability,[4]; first compound 2 µM,0.459
NCI-H1650,relative viability,[1]; first compound 0.02 µM,0.384
same,relative viability,[1]; first compound 0.06325 µM,0.492
same,relative viability,[1]; first compound 0.2 µM,0.382
same,relative viability,[1]; first compound 0.6325 µM,0.533
same,relative viability,[1]; first compound 2 µM,0.371
same,relative viability,[2]; first compound 0.02 µM,0.399
same,relative viability,[2]; first compound 0.06325 µM,0.307
same,relative viability,[2]; first compound 0.2 µM,0.411
same,relative viability,[2]; first compound 0.6325 µM,0.346
same,relative viability,[2]; first compound 2 µM,0.448
same,relative viability,[3]; first compound 0.02 µM,1.48
same,relative viability,[3]; first compound 0.06325 µM,1.18
same,relative viability,[3]; first compound 0.2 µM,1.4
same,relative viability,[3]; first compound 0.6325 µM,1.34
same,relative viability,[3]; first compound 2 µM,1.33
same,relative viability,[4]; first compound 0.02 µM,0.509
same,relative viability,[4]; first compound 0.06325 µM,0.63
same,relative viability,[4]; first compound 0.2 µM,0.874
same,relative viability,[4]; first compound 0.6325 µM,0.621
same,relative viability,[4]; first compound 2 µM,0.552
EKVX,relative viability,[1]; first compound 0.02 µM,0.242
same,relative viability,[1]; first compound 0.06325 µM,0.234
same,relative viability,[1]; first compound 0.2 µM,0.236
same,relative viability,[1]; first compound 0.6325 µM,0.256
same,relative viability,[1]; first compound 2 µM,0.248
same,relative viability,[2]; first compound 0.02 µM,0.373
same,relative viability,[2]; first compound 0.06325 µM,0.383
same,relative viability,[2]; first compound 0.2 µM,0.425
same,relative viability,[2]; first compound 0.6325 µM,0.416
same,relative viability,[2]; first compound 2 µM,0.406
same,relative viability,[3]; first compound 0.02 µM,0.608
same,relative viability,[3]; first compound 0.06325 µM,0.595
same,relative viability,[3]; first compound 0.2 µM,1.13
same,relative viability,[3]; first compound 2 µM,0.968
same,relative viability,[4]; first compound 0.02 µM,0.314
same,relative viability,[4]; first compound 0.06325 µM,0.357
same,relative viability,[4]; first compound 0.2 µM,0.412
same,relative viability,[4]; first compound 0.6325 µM,0.345
same,relative viability,[4]; first compound 2 µM,0.298
NCI-H2009,relative viability,[1]; first compound 0.02 µM,0.446
same,relative viability,[1]; first compound 0.06325 µM,0.501
same,relative viability,[1]; first compound 0.2 µM,0.461
same,relative viability,[1]; first compound 0.6325 µM,0.465
same,relative viability,[1]; first compound 2 µM,0.429
same,relative viability,[2]; first compound 0.02 µM,1.03
same,relative viability,[2]; first compound 0.06325 µM,1.01
same,relative viability,[2]; first compound 0.2 µM,1.1
same,relative viability,[2]; first compound 0.6325 µM,1.08
same,relative viability,[2]; first compound 2 µM,1.12
same,relative viability,[3]; first compound 0.02 µM,1.18
same,relative viability,[3]; first compound 0.06325 µM,1.19
same,relative viability,[3]; first compound 0.2 µM,1.26
same,relative viability,[3]; first compound 0.6325 µM,1.16
same,relative viability,[3]; first compound 2 µM,1.26
same,relative viability,[4]; first compound 0.02 µM,0.242
same,relative viability,[4]; first compound 0.06325 µM,0.332
same,relative viability,[4]; first compound 0.2 µM,0.274
same,relative viability,[4]; first compound 0.6325 µM,0.25
same,relative viability,[4]; first compound 2 µM,0.181
NCI-H1651,relative viability,[1]; first compound 0.02 µM,0.289
same,relative viability,[1]; first compound 0.06325 µM,0.332
same,relative viability,[1]; first compound 0.2 µM,0.352
same,relative viability,[1]; first compound 0.6325 µM,0.353
same,relative viability,[1]; first compound 2 µM,0.368
same,relative viability,[2]; first compound 0.02 µM,0.597
same,relative viability,[2]; first compound 0.06325 µM,0.609
same,relative viability,[2]; first compound 0.2 µM,0.617
same,relative viability,[2]; first compound 0.6325 µM,0.481
same,relative viability,[2]; first compound 2 µM,0.604
same,relative viability,[3]; first compound 0.02 µM,0.922
same,relative viability,[3]; first compound 0.06325 µM,1.09
same,relative viability,[3]; first compound 0.2 µM,1.19
same,relative viability,[3]; first compound 0.6325 µM,1.08
same,relative viability,[3]; first compound 2 µM,1.15
same,relative viability,[4]; first compound 0.02 µM,0.801
same,relative viability,[4]; first compound 0.2 µM,0.901
same,relative viability,[4]; first compound 2 µM,0.847
LU99A,relative viability,[1]; first compound 0.02 µM,0.727
same,relative viability,[1]; first compound 0.06325 µM,0.906
same,relative viability,[1]; first compound 0.2 µM,1
same,relative viability,[1]; first compound 0.6325 µM,0.803
same,relative viability,[1]; first compound 2 µM,0.782
same,relative viability,[2]; first compound 0.02 µM,0.199
same,relative viability,[2]; first compound 0.06325 µM,0.185
same,relative viability,[2]; first compound 0.2 µM,0.198
same,relative viability,[2]; first compound 0.6325 µM,0.151
same,relative viability,[2]; first compound 2 µM,0.162
same,relative viability,[3]; first compound 0.02 µM,0.807
same,relative viability,[3]; first compound 0.06325 µM,0.765
same,relative viability,[3]; first compound 0.6325 µM,0.882
same,relative viability,[3]; first compound 2 µM,0.788
same,relative viability,[4]; first compound 0.02 µM,0.477
same,relative viability,[4]; first compound 0.06325 µM,0.562
same,relative viability,[4]; first compound 0.2 µM,0.554
same,relative viability,[4]; first compound 0.6325 µM,0.552
same,relative viability,[4]; first compound 2 µM,0.424
NCI-H322M,relative viability,[1]; first compound 0.02 µM,0.736
same,relative viability,[1]; first compound 0.06325 µM,0.857
same,relative viability,[1]; first compound 0.6325 µM,0.855
same,relative viability,[1]; first compound 2 µM,0.7
same,relative viability,[2]; first compound 0.02 µM,0.654
same,relative viability,[2]; first compound 0.06325 µM,0.601
same,relative viability,[2]; first compound 0.2 µM,0.652
same,relative viability,[2]; first compound 0.6325 µM,0.62
same,relative viability,[2]; first compound 2 µM,0.577
same,relative viability,[3]; first compound 0.02 µM,1.25
same,relative viability,[3]; first compound 0.06325 µM,1.18
same,relative viability,[3]; first compound 0.2 µM,1.3
same,relative viability,[3]; first compound 0.6325 µM,1.25
same,relative viability,[3]; first compound 2 µM,1.34
same,relative viability,[4]; first compound 0.02 µM,0.536
same,relative viability,[4]; first compound 0.06325 µM,0.516
same,relative viability,[4]; first compound 0.2 µM,0.554
same,relative viability,[4]; first compound 0.6325 µM,0.477
same,relative viability,[4]; first compound 2 µM,0.525
